Earlier results, collected in patent US20250195680A1, “CANCER TREATMENT WITH ANTI-CLAUDIN 18.2 ADC” (priority 2023, published 2025).

System: gastric cancer
Settings: combined with CAPOX or mFOLFOX6 vs chemotherapy alone

zolbetuximab: anti-CLDN18.2 monoclonal antibody
efficacy in treating gastric cancer: effective in treating gastric cancer
